Test results reported in patent publication US12152060B2, “Interleukin-2 variants and methods of uses thereof” (Cugene Inc, priority 2018, dated 2024).

Columns and labels:
[1] = molecular target: T1, non-covalent complex of IL-2Rβ-ECD (NP_000869) and γc-ECD (NP_000197) (Homo sapiens, UniProt P14784+P31785); experiment: ELISA binding to IL-2Rβ and γc complex
T1 construct: non-covalent complex of IL-2Rβ-ECD (NP_000869) and γc-ECD (NP_000197)
T1 sequence (P14784 27-240 limits assumed): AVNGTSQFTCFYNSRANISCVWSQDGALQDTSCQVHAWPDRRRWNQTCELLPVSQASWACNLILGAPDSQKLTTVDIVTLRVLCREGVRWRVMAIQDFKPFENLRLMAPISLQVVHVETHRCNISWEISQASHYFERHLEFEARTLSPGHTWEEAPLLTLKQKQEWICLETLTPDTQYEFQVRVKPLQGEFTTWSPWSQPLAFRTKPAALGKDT
T1 sequence (P31785 23-262 limits assumed): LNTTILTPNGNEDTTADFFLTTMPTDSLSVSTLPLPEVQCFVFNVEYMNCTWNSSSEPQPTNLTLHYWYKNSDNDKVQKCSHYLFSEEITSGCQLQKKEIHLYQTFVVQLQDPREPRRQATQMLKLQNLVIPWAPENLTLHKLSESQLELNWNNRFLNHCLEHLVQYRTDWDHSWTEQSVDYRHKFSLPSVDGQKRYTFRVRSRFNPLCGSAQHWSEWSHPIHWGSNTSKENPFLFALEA
Description: Briefly, non-covalent complex of IL-2Rβ-ECD (NP_000869) and γc-ECD (NP_000197) through heterodimeric Fc chains was coated onto the wells of Nunc Maxisorp 96-well microplates at 2 μg/well. After overnight incubation at 4° C. and blocking with superblock (ThermoFisher), 3-fold serial dilutions of IL-2 Fc fusion proteins starting at either 100 or 270 nM were added to each well at 100 μl/well. Following a one-hour incubation at room temperature, biotin mouse anti-human IL-2 Ab (BD BioSciences) at 1 μg/ml was added to each well followed by incubation with HRP-Avidin (ThermoFisher) at 1 μg/ml for 1 hour. Wells were thoroughly aspirated and washed three times with PBS/0.05% Tween-20 following each step. Finally, 100 μl TMB substrate was added to each well; the plate was developed at room temperature in the dark for 10 minutes, and 100 μl/well of stop solution (2N Sulfuric acid, Ricca Chemical) was added. Absorbance was determined at 450 nm; curves were fit using Prism software (GraphPad) and illustrated in FIG. 11E.

Treg cells in blood = experiment: Pharmacodynamics study in mice following repeated administration (Q3D); type: in vivo, mouse; conditions: 0.3 mg/kg s.c. Q3D x3; compared to P-0531 and Benchmark-1
Description: Female Balb/C mice (7-week old) were acclimated in house for 5-7 days before the study. Vehicle (PBS), 0.3 mg/kg of P-0511, P-0512, P-0531, or Benchmark-1 compound were subcutaneously administered to mice (n=5/group) on days 0, 3, and 6. On days 3 and 9, three days after the first injection and multiple (3) injections, respectively, peripheral blood was collected. Based on earlier in vivo experiments, Treg cell activation, proliferation, and expansion were expected to peak on day 3, and thus three days post injection was selected for data collection and analysis. Changes in blood lymphocyte activation, proliferation, and expansion were measured by flow cytometry. P-0531 is the S125I equivalent of the wild type IL-2 fusion protein. The Benchmark-1 contains V91K mutation.

[2] = test system: STAT5 phosphorylation in CD4+ Treg cells (CD4+/Foxp3+/CD25high); experiment: STAT5 phosphorylation in CD4+ Treg cells, human PBMC assay by FACS; type: cell-based; conditions: pSTAT5, Treg versus Tconv
Excerpt: Single amino acid substitutions were introduced to IL-2 at positions corresponding to amino acids interacting with receptor subunit(s) β or γ or By. These substitutions were aimed to reduce IL-2 signaling capacity through the intermediate affinity IL-2Rβγ complex and confer signaling specificity from the high affinity IL-2Rαβγ. IL-2 variants containing single amino acid substitutions were examined for their ability to differentially stimulate STAT5 phosphorylation in CD4 positive Treg and Tconv cells. STAT5 is known to be involved in the downstream signaling cascade upon IL-2 binding to the transmembrane IL-2 receptors. The phosphorylation of STAT5 in defined lymphocyte subpopulations was measured using fresh human peripheral blood mononuclear cells (PBMC) and the forkhead transcription factor FOXP3 was used to identify the Treg population in FACS analysis.
Briefly, human PBMC were isolated by Ficoll-Hypaque centrifugation from the buffy coat of a healthy donor. PBMC were starved in serum-free MACS buffer at 4° C. for 1 hour. 2×10^5 PBMC were then treated with serial dilutions of test compounds for 30 min at 37° C. Cells were fixed and permeabilized with Foxp3/Transcription Factor Staining Buffer Set (EBIO) by incubating with 1× Foxp3 fixation/permeabilization working solution for 30 minutes and washing with 1× permeabilization buffer. Cells were additionally fixed with Cytofix buffer and permeabilized with Perm Buffer III (BD Biosciences) and then washed. After blocking Fc receptors by adding human TruStain™ FcX (1:50 dilution), cells were stained with a mixture of anti-CD25-PE, anti-FOXP3-APC, anti-pSTAT5-FITC, and anti-CD4-PerCP-Cy5.5 antibodies at concentrations recommended by the manufacturer for 45 minutes at room temperature. Cells were collected by centrifugation, washed, resuspended in FACS buffer, and analyzed by flow cytometry. The flow cytometry data was gated into CD4+/Foxp3+/CD25^high and CD4+/Foxp3−/CD25^low groups for the Treg and CD4 conventional T cell subsets, respectively. Data are expressed as a percent of pStat5 positive cells in gated population.

[3] = test system: regulatory T cells (CD4+CD25+FoxP3+ T cells), effector T cells and NK cells; experiment: Treg versus effector T and NK cell proliferation and expansion in mice after a single subcutaneous injection; type: in vivo, mouse; conditions: 0.3 mg/kg s.c. single dose, C57/BL6 mice
Description: IL-2 variant Fc fusion proteins were administered to mice and their ability to preferentially proliferate and expand regulatory T cells (CD4+CD25+FoxP3+ T cells) over effector T cells and NK cells were determined in vivo.
Female C57/BL6 mice (7-week old) were received from Charles River Laboratory and acclimated in house for at least 7 days before the study. Vehicle (PBS), 0.3 mg/kg of each test compounds, or IL-2 benchmark compounds were subcutaneously administered to mice on day 0. Peripheral blood samples were collected into heparin-treated tubes on days 3, 5 and 7 post-treatment. Each group contained 6 mice and baseline blood was collected 2 days prior to the treatment (day-2). After red blood cell lysis, total viable mononuclear blood cells were counted by trypan blue dead cell exclusion method and proceeded to intracellular staining for immune cell phenotype and Ki67 proliferation markers using flow cytometric analysis. Cells were stained separately with two panels of antibodies as listed: 1) anti-mouse Foxp3-FITC, Ki67-PE, anti-mouse CD25-APC and anti-mouse CD4-Percpcy5.5 (1:50 dilution) for CD4+T-regulatory cells (Treg); 2) anti-mouse CD3-FITC, Ki67-PE, anti-mouse CD335-APC and anti-mouse CD8-Percpcy5.5 (1:50 dilution) for CD8+T and NK cells.

P-0511: Fc fusion protein of IL-2 variant L19H/S125I/Q126E; SEQ ID NO: 198
EC50, binding to IL-2Rβ and γc complex (ELISA) [1]: did not show appreciable binding
Treg cell counts, fold changes relative to PBS and Treg/Tconv ratio (Treg cells in blood): superior capabilities to sustain Treg pool
window for selective activation of Treg cells over CD4+ Tconv cells (in words) [2]: further widened the Treg selectivity window
Ki67 stimulation on CD8 T cells and NK cells [3]: mild Ki67 stimulation
expansion of CD4+ Tconv cells, CD8 T cells or NK cells [3]: No significant expansion
Treg cell proliferation and expansion (Ki67 positive Treg, % Treg over CD4+ T cells or lymphocytes) ([3]; days 3, 5, 7): stronger in vivo efficacy
